In patent publication US20230339878A1, “SLC26A3 INHIBITORS AND USE THEREOF” (THE REGENTS OF THE UNIVERSITY OF CALIFORNIA, priority 2018, published 2023):
“Also recorded” adds a separate entry of the source. Read-outs that look alike come from different tables or passages of the source.

Experiments:
murine slc26a3 = biological target: T1, murine slc26a3 (Mus musculus, UniProt Q9WVC8); test: slc26a3-mediated Cl-/I- exchange, YFP fluorescence quenching in FRT-YFP-slc26a3 cells; type: cell-based
T1 construct: host or cells: Fischer rat thyroid (FRT) cells expressing YFP, clonal line FRT-YFP-slc26a3
T1 sequence (Q9WVC8 1-757): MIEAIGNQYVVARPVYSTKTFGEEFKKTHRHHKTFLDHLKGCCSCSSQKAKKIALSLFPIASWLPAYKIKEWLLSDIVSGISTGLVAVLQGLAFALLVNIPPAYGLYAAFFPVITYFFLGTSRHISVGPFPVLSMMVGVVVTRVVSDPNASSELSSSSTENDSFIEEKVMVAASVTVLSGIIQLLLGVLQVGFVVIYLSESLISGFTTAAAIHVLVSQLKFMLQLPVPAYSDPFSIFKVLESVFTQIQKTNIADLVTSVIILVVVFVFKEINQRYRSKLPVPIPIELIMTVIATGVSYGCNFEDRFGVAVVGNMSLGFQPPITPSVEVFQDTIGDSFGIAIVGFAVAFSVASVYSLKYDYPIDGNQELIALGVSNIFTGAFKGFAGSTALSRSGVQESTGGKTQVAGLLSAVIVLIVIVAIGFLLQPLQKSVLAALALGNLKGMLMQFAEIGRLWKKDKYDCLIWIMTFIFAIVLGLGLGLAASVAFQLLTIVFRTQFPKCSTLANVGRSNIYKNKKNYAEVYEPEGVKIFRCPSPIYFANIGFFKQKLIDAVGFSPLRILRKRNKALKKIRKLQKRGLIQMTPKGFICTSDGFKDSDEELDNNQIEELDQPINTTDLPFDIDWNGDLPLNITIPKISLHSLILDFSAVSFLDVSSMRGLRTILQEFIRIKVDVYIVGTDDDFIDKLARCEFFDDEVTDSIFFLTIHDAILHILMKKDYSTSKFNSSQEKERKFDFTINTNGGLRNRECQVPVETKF
Protocol: High-throughput screening to identify slc26a3 inhibitors using FRT-YFP- slc26a3 cells was done with a semi-automated Beckman Coulter (Indianapolis, IN) platform with FLUOstar OMEGA plate readers (BMG Labtech, Cary, NC), essentially as described for discovery of pendrin inhibitors. Initial screening was done of ~50,000 drug-like synthetic small molecules (ChemDiv, San Diego, CA) at a concentration of 25 µM using a Cl^-/I^- exchange protocol to assay slc26a3 function. Following initial screening, compound analogs were purchased (ChemDiv, San Diego, CA) to generate structure-activity data.
For the screening, FRT-YFP-slc26a3 cells were plated in 96-well black-walled, clear-bottom tissue culture plates (Corning Life Sciences, Tewksbury, MA) at a density of 20,000 cells/well and cultured for 48 hours until confluent. For screening, cells were washed twice in PBS and incubated for 10 min in 100 µl PBS containing test compounds prior to assay of slc26a3 function. Assays were done using a FLUOstar OMEGA plate reader (BMG Labtech, Cary, NC) over 12 s with initial fluorescence recorded over 1 s prior to addition of 100 µl NaI-substituted PBS (137 mM NaCl replaced by 137 mM NaI) to drive Cl^-/I^- exchange. The initial rate of Cl^-/I^- exchange was determined from fluorescence intensity by single exponential regression. All plates contained wells with negative (1 % DMSO) and positive (350 µM niflumic acid) controls.
Screening was done using an FRT cell line stably expressing murine slc26a3 and a halide-sensitive yellow fluorescent protein (FRT-YFP- slc26a3 cells). FRT cells were used because of their low intrinsic permeability to anions that are transported by slc26a3, and because of their good adherence and rapid growth on uncoated plastic. As diagrammed in FIG. 1A, slc26a3-mediated transport was assayed from the kinetics of YFP fluorescence quenching in response to extracellular addition of I^- to drive Cl^-/I^- exchange; transport inhibition reduces the rate of fluorescence decrease.

[1] = system: loperamide-treated wild-type mice; test: Loperamide-induced constipation model in wild-type mice; type: in vivo; conditions: 5 mg/kg oral gavage 1 hour before loperamide, wild-type mice
Protocol: Female CD1 mice (age 8-10 weeks) were administered loperamide (0.3 mg/kg, intraperitoneally, Sigma-Aldrich) to produce constipation. Compound A1 (DRAinh-A250) (5 mg/kg, in saline containing vehicle (5% DMSO and 10% Kolliphor HS 15; Sigma-Aldrich)), tenapanor (5 mg/kg, in vehicle), both compounds (5 mg/kg each, in vehicle), or vehicle alone were administered by oral gavage 1 hour before loperamide. After loperamide injection, mice were placed individually in metabolic cages with ad libitum access to food and water. Stool samples were collected for 3 h, and total stool weight and number of fecal pellets were quantified. To measure stool water content, stool samples were dried at 80° C. for 24 h and water content was calculated as [wet weight-dry weight]/wet weight. Similar studies were done in cystic fibrosis (CF) mice (ΔF508 homozygous) lacking functional CFTR.
Constipation Model in MiceDRAinh-A260 and DRAinh-A270 were tested in a loperamide-induced constipation model in mice. Female CD1 mice (age 8-10 weeks) were administered loperamide (0.3 mg/kg, intraperitoneally, in 5% ethanol in PBS, 0.1 mg/mL final concentration) to produce constipation and vehicle in control mice. DRAinh-A260 (5 mg/kg, in saline with 5% DMSO and 10% Kolliphor HS 15) or DRAinh-A270 (1, 3 or 10 mg/kg, in PBS with 5% DMSO and 20% (2- hydroxypropyl)-β-cyclodextrin) or vehicle alone were administered by oral gavage 1 hour before loperamide (FIG. 11A). After loperamide injection, mice were placed individually in metabolic cages with free access to food and water. Stool samples were collected for 3 hours, and total stool weight and number of fecal pellets were quantified. To measure stool water content, stool samples were dried at 80° C. for 24 hours and water content was calculated as [wet weight-dry weight]/wet weight.

[2] = Pharmacokinetics in mice, serum LC/MS; type: in vivo
Protocol: Pharmacokinetics of the Compound A1(DRAinh-A250) and analogs (DRAinh-A260 and DRAinh-A270) was determined in mice. After single dose intraperitoneal or oral administration (5 mg/kg for Compound A1 and DRAinh-A260, 10 mg/kg for DRAinh-A270), blood samples were collected via retro-orbital puncture at different time points and serum was separated by centrifugation. Compound concentrations were measured in serum using LC/MS. FIGS. 10A, 10B, 10C show the respective serum concentration of Compound A1 (FIG. 10A), DRAinh-A260 (FIG. 10B) and DRAinh-A270 (FIG. 10C) after single oral or intraperitoneal administration at zero time (n=3 mice per compound per administration route). Compound A1 had predicted therapeutic levels for at least 24 hours after single dose oral or intraperitoneal administration. […] (mean±SEM): 53.9±6.5% for Compound A1, 16.4±6.6% for DRAinh-A260, and 39.3±3.5% for DRAinh-A270.

[3] = representative Class A compounds, Table 3, read-out: IC50

| SMILES | IC50 (murine slc26a3; [3]) | also measured |
| --- | --- | --- |
| Cc1c(CC(=O)O)c(=O)oc2c(C)c(OCc3ccc(Cl)c(Cl)c3)ccc12 [Compound A7] |  | IC50 (murine slc26a3; selected class A analogs, Table 1, Cl-/I- exchange, read-out: IC50): 1800 nM |
| Cc1c(CC(=O)O)c(=O)oc2c(C)c(OCc3cccc([N+](=O)[O-])c3)ccc12 [Compound A253] | 500 nM |  |
| Cc1c(CC(=O)O)c(=O)oc2c(C)c(OCc3cccc(C4CC4)c3)ccc12 [Compound A261] | 70 nM |  |
| Cc1c(CC(=O)O)c(=O)oc2c(C)c(OCc3cc(C(F)(F)F)cc(C(F)(F)F)c3)ccc12 [Compound A263] | 15000 nM |  |
| Cc1c(CC(=O)O)c(=O)oc2c(C)c(OCc3cc(C(F)(F)F)ccc3F)ccc12 [Compound A266] | 100 nM |  |
| Cc1c(CC(=O)O)c(=O)oc2c(C)c(OCc3ccccc3I)ccc12 [Compound A269] | 4500 nM |  |
| CCCCCCOc1ccc2c(C)c(CC(=O)O)c(=O)oc2c1C [Compound A278] | 1500 nM |  |
| O=C(O)c1cccnc1Nc1cccc(C(F)(F)F)c1 [niflumic acid, reference compound] |  | inhibition of slc26a3, positive control (murine slc26a3; 350 µM): strongly inhibited; IC50 (murine slc26a3; read-out: IC50 for inhibition of slc26a3-mediated Cl-/I- exchange): ~60000 nM |

Now from value to compound, other results behind:

| IC50 (murine slc26a3; [3]) | SMILES | also measured |
| --- | --- | --- |
| 4500 nM | Cc1c(CC(=O)O)c(=O)oc2c(C)c(OC3CCCC3)ccc12 [Compound A279] |  |
| 3400 nM | Cc1c(CC(=O)O)c(=O)oc2c(C)c(OCC3CCC3)ccc12 [Compound A280] |  |
| 1800 nM | Cc1c(CC(=O)O)c(=O)oc2c(C)c(OCC3CCCC3)ccc12 [Compound A281] |  |
| 300 nM | Cc1c(CC(=O)O)c(=O)oc2c(C)c(OCc3ccc(C(F)(F)F)o3)ccc12 [Compound A286] |  |
| 25 nM | Cc1c(CC(=O)O)c(=O)oc2c(C)c(OCc3cccc(C(F)(F)F)c3)ccc12 [DRAinh-A260] | three-hour stool weight, number of pellets and stool water content [1]: improving stool weight, pellet number and water content; also recorded: improves 3-hour stool weight, pellet number and water content; oral bioavailability ([2]; 5 mg/kg (A1, A260) or 10 mg/kg (A270), mice): 16%; serum level time course ([2]; 5 mg/kg single dose oral or intraperitoneal): high serum levels initially; also recorded: almost complete disappearance of compound from serum at 16 hours; bioavailability ([2]; mouse, serum, po, 5 mg/kg (A1, A260) or 10 mg/kg (A270), mice, n=3, read-out: oral bioavailability (mean±SEM)): 16.4 ± 6.6% |
